Data as given in PMC3447118 (Bioconjugate chemistry, 2012).

Tests used:
[1] = microPET imaging of U87MG tumor xenografts in mice; assay type: in vivo, nude mice; settings: nude, mouse, iv, total radioactivity
U87MG tumor xenografts = experiment: microPET imaging of U87MG tumor xenografts in mice; assay type: in vivo, nude mice
[2] = tumor versus muscle (background)

- tissue uptake at 0.5 h ([1]; kidney, 20 mg/kg): 2.76 ± 0.85 %ID/g
- tissue uptake at 1 h ([1]; kidney, 20 mg/kg): 1.26 ± 0.23 %ID/g
- tissue uptake at 2 h ([1]; kidney, 20 mg/kg): 0.81 ± 0.04 %ID/g
- tissue uptake at 0.5 h ([1]; kidney): 5.46 ± 1.1 %ID/g
- tissue uptake at 1 h ([1]; kidney): 3.99 ± 1.08 %ID/g
- tissue uptake at 2 h ([1]; kidney): 2.26 ± 0.67 %ID/g
- tissue uptake at 0.5 h ([1]; liver, 20 mg/kg): 1.34 ± 0.06 %ID/g
- tissue uptake at 1 h ([1]; liver, 20 mg/kg): 0.7 ± 0.08 %ID/g
- tissue uptake at 2 h ([1]; liver, 20 mg/kg): 0.32 ± 0.01 %ID/g
- tissue uptake at 0.5 h ([1]; liver): 3.64 ± 0.76 %ID/g
- tissue uptake at 1 h ([1]; liver): 2.84 ± 0.76 %ID/g
- tissue uptake at 2 h ([1]; liver): 2.15 ± 0.53 %ID/g
- tissue to tissue ratio at 0.5 h [1, 2]: 4.5 ± 0.83
- tissue to tissue ratio at 1 h [1, 2]: 5.4 ± 0.72
- tissue to tissue ratio at 2 h [1, 2]: 6.3 ± 1.1
- tissue uptake at 0.5 h ([1]; tumor, 20 mg/kg): 1.62 ± 0.1 %ID/g
- tissue uptake at 1 h ([1]; tumor, 20 mg/kg): 1.26 ± 0.13 %ID/g
- tissue uptake at 2 h ([1]; tumor, 20 mg/kg): 0.49 ± 0.02 %ID/g
- tissue uptake at 1 h ([1]; tumor): 4.25 ± 0.82 %ID/g
- tissue uptake at 2 h ([1]; tumor): 3.35 ± 0.71 %ID/g
- specific tumor uptake higher than that of [18F]FPPRGD2 (U87MG tumor xenografts; 30 min, comparison in the same mice (Fig S5, Table S1)): 50%
- uptakes in organs such as liver and kidney compared with [18F]FPPRGD2 (U87MG tumor xenografts; comparison in the same mice): higher
SMILES: N=C(N)NCCC[C@@H]1NC(=O)[C@H](CCCCNC(=O)CC[C@H](NC(=O)COCCOCCOCCNC(=O)[C@@H]2CSC(c3nc4ccc(OCCF)cc4s3)=N2)C(=O)NCCCC[C@@H]2NC(=O)[C@@H](Cc3ccc(O)cc3)NC(=O)[C@H](CC(=O)O)NC(=O)CNC(=O)[C@H](CCCNC(=N)N)NC2=O)NC(=O)[C@@H](Cc2ccc(O)cc2)NC(=O)[C@H](CC(=O)O)NC(=O)CNC1=O [[^18F]CBTRGD2]
